Measurements reported in patent US6187585A, “Oligonucleotide inhibition of epidermal growth factor receptor expression” (Isis Pharmaceuticals, Inc., priority 1999, dated 2001).
Strand notation (5' to 3'): a small letter for the sugar, then the base; units joined by * are phosphorothioate-linked, units joined directly phosphodiester-linked; [ ] holds rarer units or linkages, { } end groups; capitals alone tell only the bases. d = 2'-deoxy (DNA)

Assays:
A431 cells = conditions: cited from earlier work
EGFR tyrosine kinase = conditions: cited from earlier work
EGFR mRNA [1] = test: EGFR mRNA inhibition, Northern blot, A549 human lung carcinoma cells; format: cell-based; conditions: for % Inhibition of EGFR mRNA (10 kb band): 300 nM oligonucleotide, 15 μg/ml LIPOFECTIN, relative to untreated control, normalized to G3PDH
EGFR mRNA [2] = test: EGFR mRNA inhibition, Northern blot, SKOV3 human ovarian carcinoma cells; format: cell-based; conditions: for % Inhibition of EGFR mRNA (10 kb band): 300 nM oligonucleotide, 15 μg/ml LIPOFECTIN, relative to untreated control, normalized to β-actin
EGFR mRNA [3] = test: EGFR mRNA, Northern blot, both cell types together (A549 and SKOV3); format: cell-based, human; conditions: 300 nM
Method: SKOV3 and A549 cells were grown in T-75 flasks until 65-75% confluent. The cells were washed once with serum-free OPTI-MEM® medium (Life Technologies, Inc., Grand Island, N.Y.) and 5 ml of the serum-free OPTI-MEM® containing 15 μg/ml of LIPOFECTIN® reagent (a 1:1 liposome formulation of the cationic lipid DOTMA and DOPE, Life Technologies, Inc.) was added. At that time, 300 nM of oligonucleotide was added and swirled vigorously. After a 4-5 hour incubation at 37° C., the solution was removed and fresh maintenance medium containing 10% fetal bovine serum was added. The cells were again incubated overnight at 37° in 5% CO2, after which the cells were assayed for EGFR MRNA expression or cell growth.
Total mRNA was extracted from the cells. For SKOV3 cells, cells were washed twice with PBS and 1-2 ml of RNAZOL B® (Tel-Test, Inc., Friendswood Tex.) was added. An incubation at 4° C. for 5-30 minutes was done and the cells were scraped into an Eppendorf tube. This solution was frozen at -80° C. for 20 minutes, thawed and chloroform (200 μl/ml) was added. The solution was centrifuged at 12,000×g for 15 minutes at 4° C. and the aqueous layer was transferred to a clean Eppendorf tube. An equal volume of isopropanol was added and incubated at room temperature for 15 minutes. Another centrifugation at 12,000×g for 15 minutes at 4° C. was done. The pellet was washed with 500 μl of 75% ethanol and centrifuged at 7500×g for 5 minutes at 4° C. As much of the supernatant as possible was removed and the pellet was resuspended in 30 μl of double distilled water. For A549 cells, total mRNA was extracted using a guanidinium/cesium chloride extraction protocol as described by Dean et al., J. Biol. Chem., 1994, 269, 16416. Ten μg of this mRNA was resolved on a 1.0% agarose gel containing 3.0% formaldehyde and transferred to a nylon membrane. […] The membrane was exposed to autoradiography film at -80° C. and the MRNA bands quantitated using a densitometer (Molecular Dynamics). Blots were stripped of radioactivity by boiling and then reprobed with a ^32 P-labeled control probe which hybridized either to G3PDH (Clontech Laboratories, Inc., Palo Alto Calif.) or β-actin (Ambion, Austin Tex.).
Some of the oligonucleotides in Table 1 were tested for their ability to inhibit EGFR mRNA expression in A549 human lung carcinoma cells and SKOV3 human ovarian carcinoma cells, both of which overexpress the EGFR. […] Total RNA was extracted and quantitated by Northern blot analysis, using PCR-generated EGFR cDNA probes. Bands were quantitated on a densitometer and normalized to control probe bands (G3PDH for the A549 cells and β-actin for the SKOV3 cells). […]

EGFR protein = EGFR protein synthesis, metabolic labeling and immunoprecipitation, SKOV3 cells; format: cell-based, human; conditions: 35S-methionine labeling, compared to untreated cells
Method: Human SKOV3 ovarian carcinoma cells were obtained from the American Type Culture Collection. They were grown in McCoy's 5A medium containing NaHCO3, 10% fetal bovine serum and antibiotics and routinely passaged. A549 human lung carcinoma cells were routinely passaged in DMEM medium supplemented with 10% fetal bovine serum.
SKOV3 cells were treated with the indicated oligonucleotides in serum-free, methionine-free OPTI-MEM® medium for 2.5 hours. The medium was then replaced with methionine-free OPTI-MEM® containing ^35 S-methionine (100 μCi/ml) and 2% dialyzed fetal bovine serum for 10 hours. Cell extracts were prepared as described by Kumar et al., Proc. Natl. Acad. Sci. USA, 1992, 89, 6599. Aliquots containing equal amounts of trichloroacetic acid-precipitable counts per minute were subjected to immunoprecipitation with anti-EGFR monoclonal antibody 528/rabbit anti-mouse IgG/protein A-Sepharose conjugate. Kumar et al., Proc. Natl. Acad. Sci. USA, 1992, 89, 6599 and Korutla et al., Carcinogenesis, 1995, 16, 1741. Lysates containing equal amounts of protein were also resolved on a 10% SDS-polyacrylamide gel and stained with Coomassie blue.
ISIS 10563, ISIS 12876 and ISIS 12877 were added to exponentially growing SKOV3 cells. Cells were metabolically labeled with ^35 S-methionine and newly synthesized EGFR protein was immunoprecipitated. […] Coomassie blue staining confirmed that proteins other than EGFR were not affected by treatment of cells with antisense oligonucleotides.

[4] = 300 nM, scrambled control, 10 kb band

Compound	% Inhibition of EGFR mRNA (10 kb band) (EGFR mRNA [1])	% Inhibition of EGFR mRNA (10 kb band) (EGFR mRNA [2])	reduction of EGFR mRNA expression, ranking in words (EGFR mRNA [3])	reduction of EGFR protein production / EGFR synthesis (EGFR protein)	also measured
COc1cc2ncnc(Nc3cccc(Br)c3)c2cc1OC [PD153035]					inhibition of the growth of A431 cells in nude mice (A431 cells): can inhibit the growth of A431 cells in nude mice; inhibition of EGFR tyrosine kinase activity (EGFR tyrosine kinase): inhibits EGFR tyrosine kinase activity
ISIS 10561: TGTCGGCCCCACAGGCTCGG; phosphorothioate 2'-deoxy; coding region, Ullrich 1110-1129 (antisense dT*dG*dT*dC*dG*dG*dC*dC*dC*dC*dA*dC*dA*dG*dG*dC*dT*dC*dG*dG)	greater than 50%	45%			% Inhibition of EGFR mRNA (10 kb band) (EGFR mRNA [1]; listed as 10561): 75%
ISIS 10563: CCCCAGCAGCTCCCATTGGG; phosphorothioate deoxyoligonucleotide; coding region, Ullrich 769-788 (antisense dC*dC*dC*dC*dA*dG*dC*dA*dG*dC*dT*dC*dC*dC*dA*dT*dT*dG*dG*dG)	95%	61%	greatest amount of reduction of EGFR mRNA expression in both cell types	90-98%	
ISIS 10565: CTCGGCTGACATTCCGGCAA; phosphorothioate 2'-deoxy; coding region, Ullrich 1761-1780 (antisense dC*dT*dC*dG*dG*dC*dT*dG*dA*dC*dA*dT*dT*dC*dC*dG*dG*dC*dA*dA)	43%	33%			
ISIS 12139: GAGTTCGCGTCCTTTCTCCA; scrambled control; phosphorothioate (all phosphorothioate, sugars by position and methylation of C not given here) [reference compound]				10%	increase in EGFR mRNA compared to untreated controls (EGFR mRNA [1]; [4]): 18%; increase in EGFR mRNA compared to untreated controls (EGFR mRNA [2]; [4]): 39%
ISIS 12875: CCCCAGCAGCTCCCAUUGGG; 2'-fluoro; phosphorothioate; coding region, Ullrich 769-788 (all phosphorothioate, sugars by position and methylation of C not given here; 2'-fluoro modification, further chemistry not fully specified)	77%	57%	slightly less potent		
ISIS 12876: CCCCAGCAGCTCCCATTGGG; 5-methyl C; phosphorothioate; coding region, Ullrich 769-788 (all C 5-methyl, all phosphorothioate, sugars by position not given here)	97%	66%	greatest amount of reduction of EGFR mRNA expression in both cell types	90-98%	
ISIS 12877: CUCGGCTGACATTCCGGCAA; 2'-fluoro; phosphorothioate (all phosphorothioate, sugars by position and methylation of C not given here; 2'-fluoro modification, further chemistry not fully specified)	93%	61%	greatest amount of reduction of EGFR mRNA expression in both cell types	90-98%	
ISIS 12878: GAGGCGTTCTCCTUUCUCCA; 2'-O-propyl; phosphorothioate; coding region, Ullrich 2966-2985 (all phosphorothioate, sugars by position and methylation of C not given here; 2'-O-propyl modification, further chemistry not fully specified)	greater than 50%	22%			% Inhibition of EGFR mRNA (10 kb band) (EGFR mRNA [1]; listed as 12878): 66%
